Experimental data as given in BindingDB's records for doi:10.1016/0960-894X(96)00323-X (1996).

Assay: Inhibition of Phosphodiesterase 5 from human corpus cavernosum

Compound: CCCc1nn(C)c2c(=O)[nH]c(-c3cc(S(=O)(=O)N4CCN(C(N)=O)CC4)ccc3OCC)nc12 [4-[4-Ethoxy-3-(1-methyl-7-oxo-3-propyl-6,7-dihydro-1H-pyrazolo[4,3-d]pyrimidin-5-yl)-benzenesulfonyl]-piperazine-1-carboxylic acid amide]
- IC50: 2.1 nM

Compound: CCCc1[nH]nc2c(=O)[nH]c(-c3ccccc3O)nc12 [5-(2-Hydroxy-phenyl)-3-propyl-1,6-dihydro-pyrazolo[4,3-d]pyrimidin-7-one]
- IC50: 1000 nM

Compound: CCCc1[nH]nc2c(=O)[nH]c(-c3ccccc3)nc12 [5-Phenyl-3-propyl-1,6-dihydro-pyrazolo[4,3-d]pyrimidin-7-one]
- IC50: 4500 nM

Compound: CCCc1nn(C)c2c(=O)[nH]c(-c3cc(S(=O)(=O)N4CCN(CCO)CC4)ccc3OCC)nc12 [5-{2-Ethoxy-5-[4-(2-hydroxy-ethyl)-piperazine-1-sulfonyl]-phenyl}-1-methyl-3-propyl-1,6-dihydro-pyrazolo[4,3-d]pyrimidin-7-one]
- IC50: 19 nM
